Type in all cases: cell-based
The subject of one assay is A549. As to the kind of experiment: Cytostatic/cytotoxic MTT assay, A549. Particulars: Homo sapiens, A549; 72 h incubation; read-out: MTT, IC50 A549. The text has this: (§1) Unless otherwise stated, all cells were purchased from the […] (ATCC). The CCRF-CEM line is derived from T lymphoblastic leukemia, evincing high chemosenzitivity, K562 represent cells from a […] patient sample with bcr-abl translocation, HCT116 is colorectal tumor cell line and its p53 gene knock-down counterpart (HCT116p53−/−, Horizon Discovery, UK) is a model of human cancers with p53 inactivation frequently associated with poor prognosis, A549 cell line is lung adenocarcinoma. The daunorubicin resistant subline of CCRF-CEM cells (CEM-DNR bulk) and paclitaxel resistant subline K562-TAX were selected in our laboratory by cultivation of maternal cell lines in increasing concentrations of daunorubicine or paclitaxel, respectively. The CEM-DNR cells overexpress mrp-1 and mdr-1 genes, while K562-TAX cells overexpress mdr-1 only. Both proteins belong to the family of ABC transporters and are involved in the primary and/or acquired multidrug resistance phenomenon (ref.: Gottesman, M. M.; Fojo, T.; Bates, S. E. Multidrug resistance in cancer: role of ATP-dependent transporters. Nat. Rev. Cancer. 2002, 2, 48-58. (b) Noskova, V.; Dzubak, P.; Kuzmina, G.; Ludkova, A.; Stehlik, D.; Trojanec, R.; Janostakova, A.; Korinkova, G.; Mihal, V.; Hajduch, M. In vitro chemoresistance profile and expression/function of MDR associated proteins in resistant cell lines derived from CCRF-CEM, K562, A549 and MDA MB 231 parental cells. Neoplasma 2002, 49, 418-425). Non-malignant MRC-5 and BJ cells, derived from normal human fibroblasts, were used as controls. The cells were maintained in Nunc/Corning 80 cm^2 plastic tissue culture flasks and cultured in cell culture medium (DMEM/RPMI 1640 with 5 g/L glucose, 2 mM glutamine, 100 U/mL penicillin, 100 µg/mL streptomycin, 10% fetal calf serum, and NaHCO3). Cell suspensions were prepared and diluted according to the particular cell type and the expected target cell density (25,000-30,000 cells/well based on cell growth characteristics). Cells were added by pipette (80 L) into 96-well microtiter plates. Inoculates were allowed a pre-incubation period of 24 h at 37° C. and 5% CO2 for stabilization. Four-fold dilutions, in 20-L aliquots, of the intended test concentration were added to the microtiter plate walls at time zero. All test compound concentrations were examined in duplicate. Incubation of the cells with the test compounds lasted for 72 h at 37° C., in a 5% CO2 atmosphere at 100% humidity. At the end of the incubation period, the cells were assayed using MTT. Aliquots (10 L) of the MTT stock solution (5 mg/ml) were pipetted into each well and incubated for another 1-4 h. After this incubation period the formazan produced was dissolved by addition of 100 µL/well of 10% aq SDS (pH 5.5), followed by a further incubation at 37° C. overnight. The optical density was measured at 540 nm. The IC50 value, the drug concentration inhibiting the cell growth by 50%, was calculated from appropriate dose-response curves.
(§2) In vitro cytotoxic/cytostatic activity final nucleosides 1-5 was initially evaluated against […] cell lines derived from human solid tumors including lung (A549 cells) and colon (HCT116 and HCT116p53−/−) carcinomas, as well as leukemia cell lines (CCRF-CEM, CEM-DNR, K562 and K562-TAX) and, for comparison, non-malignant BJ and MRC-5 fibroblasts. Concentrations inhibiting the cell growth by 50% (IC50) were determined using a quantitative metabolic staining with 3-(4,5-dimethylthiazol-2-yl)-2,5-diphenyltetrazolium bromide (MTT) (ref.: Denizot, F.; Lang, R. Rapid colorimetric assay for cell growth and survival: Modifications to the tetrazolium dye procedure giving improved sensitivity and reliability. J. Immunol. Meth. 1986, 89, 271-277) following a 3-day treatment.
(In general: Formazan colour is commonly taken as a measure of viable cells.)

For the next assay, the system named is K562-TAX. As to the kind of experiment: Cytostatic/cytotoxic MTT assay, K562-TAX. The conditions noted are these: Homo sapiens, paclitaxel resistant subline, 72 h, read-out: MTT, IC50 K562-TAX.
Description: as §1, §2
Multidrug resistance is a major therapeutic problem in cancer chemotherapy. […]

A further assay relates to BJ. Put plainly: Cytostatic/cytotoxic MTT assay, BJ fibroblasts. The conditions noted are these: Homo sapiens, non-malignant fibroblasts, 72 h, read-out: MTT, IC50 BJ.
Description: as §1, §2

The next assay deals with CCRF-CEM. As to the kind of experiment: Cytostatic/cytotoxic MTT assay, CCRF-CEM. Particulars: Homo sapiens, 72 h incubation, read-out: MTT, IC50 CCRF-CEM.
Description: as §1, §2

These results are taken from patent US9586986B2, “Substituted 7-deazapurine ribonucleosides for therapeutic uses” (Institute of Organic Chemistry and Biochemistry ASCR, v.v.i., priority 2014, dated 2017).

Where only a bound is given, the exact number is not on record here.

What is called IC50 is the concentration that gives 50% inhibition. Regarding `COc1ncnc2c1c(-c1cc3ccccc3o1)cn2[C@@H]1O[C@H](CO)[C@@H](O)[C@H]1O` [Compound 1f, 5-(Benzofuran-2-yl)-4-methoxy-7-(β-D-ribofuranosyl)-7H-pyrrolo[2,3-d]pyrimidine], the IC50 came out at 17.7 µM with A549, 13.1 µM with K562-TAX, 22.4 µM in the assay on BJ and 5.37 µM with CCRF-CEM.

For the compound `C#Cc1cn([C@@H]2O[C@H](CO)[C@@H](O)[C@H]2O)c2ncnc(OC)c12` [Compound 1g, 5-Ethynyl-4-methoxy-7-(β-D-ribofuranosyl)-7H-pyrrolo[2,3-d]pyrimidine], the IC50 in the assay with A549 was 8.16 µM; in the assay with K562-TAX it was 0.38 µM; with BJ, 98.4 µM; in the assay with CCRF-CEM it was more than 20 µM.

On to `CSc1ncnc2c1c(-c1cccs1)cn2[C@@H]1O[C@H](CO)[C@@H](O)[C@H]1O` [Compound 2c, 4-Methylsulfanyl-7-(β-D-ribofuranosyl)-5-(thiophen-2-yl)-7H-pyrrolo[2,3-d]pyrimidine], for which the IC50 was more than 20 µM with A549, more than 20 µM with K562-TAX, 96.9 µM in the assay on BJ and more than 20 µM in the assay on CCRF-CEM.

With `CSc1ncnc2c1c(-c1cc3ccccc3o1)cn2[C@@H]1O[C@H](CO)[C@@H](O)[C@H]1O` [Compound 2f, 5-(Benzofuran-2-yl)-4-methylsulfanyl-7-(β-D-ribofuranosyl)-7H-pyrrolo[2,3-d]pyrimidine], the IC50 with A549 is more than 20 µM; with K562-TAX, more than 20 µM; in the assay on BJ, 67.2 µM; in the assay on CCRF-CEM it was more than 20 µM.

With `C#Cc1cn([C@@H]2O[C@H](CO)[C@@H](O)[C@H]2O)c2ncnc(SC)c12` [Compound 2g, 5-Ethynyl-4-methylsulfanyl-7-(β-D-ribofuranosyl)-7H-pyrrolo[2,3-d]pyrimidine], the IC50 in the assay on A549 was 0.14 µM; with K562-TAX it was 0.07 µM; in the assay on BJ, 68.6 µM; with CCRF-CEM, more than 20 µM.

For `C#Cc1cn([C@@H]2O[C@H](CO)[C@@H](O)[C@H]2O)c2ncnc(NC)c12` [Compound 3g, 5-Ethynyl-4-methylamino-7-(β-D-ribofuranosyl)-7H-pyrrolo[2,3-d]pyrimidine], the IC50 was more than 20 µM in the assay on A549, 1.38 µM in the assay with K562-TAX, 86 µM in the assay with BJ and more than 20 µM in the assay on CCRF-CEM.

`CN(C)c1ncnc2c1c(-c1cccs1)cn2[C@@H]1O[C@H](CO)[C@@H](O)[C@H]1O` [Compound 4c, 4-Dimethylamino-7-(β-D-ribofuranosyl)-5-(thiophen-2-yl)-7H-pyrrolo[2,3-d]pyrimidine]: the IC50 in the assay with A549 was more than 20 µM; with K562-TAX, more than 20 µM; in the assay with BJ, more than 100 µM; in the assay with CCRF-CEM, more than 20 µM.

On to `CN(C)c1ncnc2c1c(-c1ccccc1)cn2[C@@H]1O[C@H](CO)[C@@H](O)[C@H]1O` [Compound 4e, 4-Dimethylamino-5-phenyl-7-(β-D-ribofuranosyl)-7H-pyrrolo[2,3-d]pyrimidine], for which the IC50 in the assay on A549 was more than 100 µM; in the assay on K562-TAX, more than 20 µM; in the assay with BJ it was more than 100 µM; in the assay on CCRF-CEM, more than 20 µM.

As to `CN(C)c1ncnc2c1c(-c1cc3ccccc3o1)cn2[C@@H]1O[C@H](CO)[C@@H](O)[C@H]1O` [Compound 4f, 5-(Benzofuran-2-yl)-4-dimethylamino-7-(β-D-ribofuranosyl)-7H-pyrrolo[2,3-d]pyrimidine], the IC50 is more than 20 µM in the assay with A549, more than 20 µM in the assay on K562-TAX, more than 100 µM in the assay on BJ and more than 20 µM in the assay on CCRF-CEM.

Take `Cc1ncnc2c1c(-c1ccco1)cn2[C@@H]1O[C@H](CO)[C@@H](O)[C@H]1O` [Compound 5a, 5-(Furan-2-yl)-4-methyl-7-(β-D-ribofuranosyl)-7H-pyrrolo[2,3-d]pyrimidine]: the IC50 in the assay with A549 came out at 0.11 µM; in the assay with K562-TAX it was 0.11 µM; with BJ, 0.07 µM; in the assay on CCRF-CEM it was 0.04 µM.
